In patent US6008356A, “Pharmaceutically available protoberberine salts derivatives, and protoberberine salts derivatives, and protoberberine derivatives and salts thereof” (priority 1998, dated 1999):
Where a name gives a salt, the structure may show the parent alone.

Experiments:
C. parapsilosis = assay: MIC; type: cell-based; details: Lodderomyces parapsilosis; C. parapsilosis; read-out: MIC
male ICR mice = details: mouse, in vivo
salmonella typhimurium = assay: bacterial reverse mutation test (Ames test); type: cell-based
[1] = tested on: cultured lung cells derived from chinese hamster; type: cell-based
acute oral toxicity = details: rat, in vivo, po, rats
Protocol: (§1) Meanwhile, the toxicity test of the compound of the present invention was performed using […]. The compound was suspended in propylene glycol. The resulting suspension was medicated respectively on 5 female rats and 5 male rats(SD) of which age are 5 weeks, via oral after 12 hour starvation. The general symtoms, weight change and lethal case of the above rats were investigated. In cases of tests of the compound Nos. 25, 62, 63 and 85 (delivery of 2,000 mg/kg), the general symtom and weight change were normal and the lethal case was not observed. […] The toxicity data on the compound Nos. 25, 62, 63 and 85 are described in the following Table 5. In light forgoings, the compounds of the present invention are safe in toxicity and have the excellent lethal effect and growth-inhibition effect against fungus.

rats = assay: acute oral toxicity; details: rat, in vivo
Protocol: as §1

C. albicans IFO 1385 = assay: MIC; type: cell-based, Candida albicans; details: Candida albicans, IFO1385; C. albicans IFO 1385; read-out: MIC
C. glulliermendi = assay: MIC; type: cell-based; details: C. glulliermendi; read-out: MIC
C. albicans ATCC 11651 = assay: MIC; type: cell-based, Candida albicans; details: Candida albicans, ATCC11651; C. albicans ATCC 11651; read-out: MIC
C. albicans ATCC 10231 = assay: MIC; type: cell-based; details: Candida albicans, ATCC10231; C. albicans ATCC 10231; read-out: MIC
C. glabrata = assay: MIC; type: cell-based; details: Nakaseomyces glabratus; C. glabrata; read-out: MIC
C. albicans KCTC 1940 = assay: MIC; type: cell-based, Candida albicans; details: Candida albicans, KCTC1940; C. albicans KCTC 1940; read-out: MIC
E. floccosum = assay: MIC; type: cell-based, Epidermophyton floccosum; details: Epidermophyton floccosum; E. floccosum; read-out: MIC
C. albicans OY 019 = assay: MIC; type: cell-based, Candida albicans; details: Candida albicans, OY019; C. albicans OY 019; read-out: MIC
C. albicans ATCC 28838 = assay: MIC; type: cell-based, Candida albicans; details: Candida albicans, ATCC28838; C. albicans ATCC 28838; read-out: MIC
C. krusei = assay: MIC; type: cell-based; details: Pichia kudriavzevii; C. krusei; read-out: MIC
fungal infection of foot = assay: 0.5% creamy formulation applied on male patients with fungal infection of foot; type: in vivo, human (male patients); details: 0.5% cream once a day for five days
Source text: The above 0.5% creamy formulation of the compound No. 62 was applied on infected area of 10 male patients with fungal infection of foot, in a proper amount once a day for five days.

C. albicans OY 003 = assay: MIC; type: cell-based, Candida albicans; details: Candida albicans, OY003; C. albicans OY 003; read-out: MIC
Epidermophyton floccosum = assay: Antifungal efficacy of creamy formulation against local fungal skin infection; type: in vivo, mouse (SKH/1, hairless, male); details: 0.5% cream, topical
Protocol: Specific pathogen free SKH/1 male mouse(Hairless) of which weight is 30-35 g and age is 5 weeks, was reared with sterilized water and feed for 12 night/day in the condition of 21-23° C. and of 50% relative humidity. Five mice were allocated by each group. After skin infection, each mouse was taken in separate cage. The strain of microorganism for infection(Epidermophyton floccosum) was cultivated on a flat medium of SDA(Sabouraud Dextrose Agar) for 5-7 days and after confirmation of macrocomidia, 3 ml of RPMI (Rosewell Park Memorial Institute) 1640 media per each flat medium was added thereto and then scraped well using loop to remove hyphae from media. The floating liquid was suspended briefly and then diluted with RPMI 1640 media to adjust the concentration of hyphae to 2×10^6 CFU/ml. Mouse was anesthetized and marked on back site(lumbosacral area) in a shape of circle of which diameter is 1.5 cm. Then, the inner part of marked skin was scratched with sand paper. The scratched part was covered with a filter paper to preserve inoculated microorganism for a long time and thereby stimulating the skin continuously. 0.2 ml of fungus solution of which concentration is adjusted as described above, was inoculated between the skin and filter paper. 5 Days after the inoculation, the filter paper was removed and the infection of skin was examined. The test formulations, 0.5% creamy formulations of the compounds Nos. 62 and 85, 1.0% creamy formulation of Terbinafine(Lamisile cream) and a placebo was applied on the infected areas in a same amount once a day for 5 days. The clinical evaluation on the change of the infected area in 5 days after the inoculation was performed and expressed numerically from 0 to 4. The daily change of the infected area was checked every day. The result of each group was compared with each other.
1: Mild erythema or small number of skin eruption
2: Well-demarcated erythema with scales or mild skin eruption of infected area
3: Wide area of marked skin eruption, scales, swelling or severe skin eruption with partial swelling and scales
4: The same as those of control, or severe skin eruption in entire lesion
The result was calculated as follows;
T: Average score of clinical evaluation in drug treated area
K: Average score of clinical evaluation in placebo control group
Moreover, the antifungal efficacies of the 0.5% creamy formulation of the compounds Nos. 29, 35, 60, 62, 63 and 85, and 1% creamy formulation of Terbinafme (Lamisil cream), which are measured by applying the above formulations on the skin infected with Epidermophyton floccosum of mouse which is the standard animal for the test of local fungal skin infection, i.e, Specific Pathogen Free SKH/1, are described in the following Table 4.

C. albicans U.K. = assay: MIC; type: cell-based; details: Candida albicans; C. albicans U.K.; read-out: MIC
Candida albicans = details: oral, 350-700 mg/kg; Mirska et al. 1972; cited from earlier work
[2] = tested on: fungi, such as Alternaria sp., Aspergillus flavus, Aspergdlus fumigatus, Candida albicans, Curvularia sp., Drechslera sp., Fusarium sp., Mucor sp., Penicillium …; details: Mahajan et al. 1982; cited from earlier work
human = details: may cause harmful or lethal effect on human in case of being dosed excessively; cited from earlier work
[3] = tested on: Gram-negative or Gram-positive bacteria, such as Staphylococcus aureus, Staphylococcus hemolyticus, Salmonella typhosa, Shigella dysenteriae, Shigella …; details: cited from earlier work

Row | Structure (SMILES) | MIC (C. parapsilosis) [µg/mL] | nucleus test (micronucleous test) (male ICR mice) | AMES test (salmonella typhimurium) | chromosome abnormality test [1] | LD50 (acute oral toxicity; female) [mg/kg] | LD50 (acute oral toxicity; male) [mg/kg] | lethal case (rats) | MIC (C. albicans IFO 1385) [µg/mL] | MIC (C. glulliermendi) [µg/mL] | MIC (C. albicans ATCC 11651) [µg/mL] | MIC (C. albicans ATCC 10231) [µg/mL] | MIC (C. glabrata) [µg/mL] | MIC (C. albicans KCTC 1940) [µg/mL] | MIC (E. floccosum) [µg/mL] | MIC (C. albicans OY 019) [µg/mL] | MIC (C. albicans ATCC 28838) [µg/mL] | MIC (C. krusei) [µg/mL] | MIC (C. albicans OY 003) [µg/mL] | Efficacy (%) 0 day later (Epidermophyton floccosum) [%] | Efficacy (%) 1 day later (Epidermophyton floccosum) [%] | other results
1 | COc1ccc2c(Cc3ccc(C(C)(C)C)cc3)c3[n+](cc2c1OC)CCc1cc2c(cc1-3)OCO2 [compound 62, 13-(4-t-butylbenzyl)berberine chloride] | > 100 | negative | negative | negative | > 2700 | > 3700 | not observed | 6.25 | 12.5 | 0.78 | 6.25 | > 100 | 0.78 | 12.5 | 0.78 | 0.78 | 3.12 | 0.78 | 0 | 40.0 | remedial effect (fungal infection of foot; in 8 of 10 male patients): more than 98%; patients exhibiting remedial effect more than 98% (fungal infection of foot; of 10 male patients): 8 Patients; Efficacy (%) 2 day later (Epidermophyton floccosum): 55.4%; Efficacy (%) 3 day later (Epidermophyton floccosum): 69.4%; Efficacy (%) 4 day later (Epidermophyton floccosum): 72.6%; Efficacy (%) 5 day later (Epidermophyton floccosum): 76.3%; Efficacy (%) 6 day later (Epidermophyton floccosum): 79.2%; Efficacy (%) 7 day later (Epidermophyton floccosum): 85.4%; MIC (C. albicans U.K.): 6.25 µg/mL
2 | COc1ccc2c(Cc3cccc(C(F)(F)F)c3)c3[n+](cc2c1OC)CCc1cc2c(cc1-3)OCO2 [compound 25, 13-(3-trifluoromethylbenzyl)berberine chloride] |  | negative | negative | negative | > 2500 | > 3000 | not observed |  |  |  |  |  |  |  |  |  |  |  |  |  | 
3 | CCCOc1cc2c(cc1OCCC)-c1cc3ccc(OCCC)c(OCCC)c3c[n+]1CC2 [compound 85, 2,3,9,10-tetrapropoxy protoberberine iodide] | 12.5 | negative | negative | negative | > 5000 | > 5000 | not observed | 6.25 | > 100 | 0.4 | 6.25 | > 100 | 0.4 | > 100 | 0.4 | 0.78 | 1.56 | 0.4 | 0 | 34.5 | Efficacy (%) 2 day later (Epidermophyton floccosum): 38.8%; Efficacy (%) 3 day later (Epidermophyton floccosum): 42.5%; Efficacy (%) 4 day later (Epidermophyton floccosum): 54.6%; Efficacy (%) 5 day later (Epidermophyton floccosum): 63.2%; Efficacy (%) 6 day later (Epidermophyton floccosum): 68.0%; Efficacy (%) 7 day later (Epidermophyton floccosum): 70.5%; MIC (C. albicans U.K.): 50 µg/mL
4 | COc1ccc2cc3[n+](cc2c1OC)CCc1cc2c(cc1-3)OCO2 [berberine sulfate] |  |  |  |  |  |  |  |  |  |  |  |  |  |  |  |  |  |  |  |  | effect in mice infected with Candida albicans (Candida albicans): effective; concentration inhibiting the growth of fungi [2]: 10 to 25 mg/mL; toxicity (human): exhibits intense toxicity
5 | COc1ccc2cc3[n+](cc2c1OC)CCc1cc2c(cc1-3)OCO2 [Berberine chloride] |  |  |  |  |  |  |  |  |  |  |  |  |  |  |  |  |  |  |  |  | antibacterial activity ([3]; Ukita et al. 1949): exhibits antibacterial activity
6 | COc1ccc2c(Cc3ccc(C(C)C)cc3)c3[n+](cc2c1OC)CCc1cc2c(cc1-3)OCO2 [compound 63, 13-(4-i-propylbenzyl)berberine chloride] | > 100 | negative | negative | negative | > 2000 | > 2500 | not observed | 6.25 | 12.5 | 0.78 | 6.25 | > 100 | 1.56 | 12.5 | 1.56 | 0.78 | 3.12 | 6.25 | 0 | 42.5 | Efficacy (%) 2 day later (Epidermophyton floccosum): 52.5%; Efficacy (%) 3 day later (Epidermophyton floccosum): 59.8%; Efficacy (%) 4 day later (Epidermophyton floccosum): 64.6%; Efficacy (%) 5 day later (Epidermophyton floccosum): 73.6%; Efficacy (%) 6 day later (Epidermophyton floccosum): 75.6%; Efficacy (%) 7 day later (Epidermophyton floccosum): 80.2%; MIC (C. albicans U.K.): 6.25 µg/mL
7 | COc1ccc2c(c1OC)CN1CCc3cc4c(cc3C1C2)OCO4 (stereo not shown) [tetrahydroberberine] |  |  |  |  |  |  |  |  |  |  |  |  |  |  |  |  |  |  |  |  | antibacterial effect of derivatives without quaternary ammonium salt ([3]; Pitea et al. 1972): exhibits less effect
